The record followed here is patent US20260317312A1, “ISOXAZOLIDINES AS RIPK1 INHIBITORS AND USE THEREOF” (GENZYME CORPORATION, priority 2023, published 2026).

In test [1] the target is T1, hRIPK1 (aa 1-375) fusion protein (Homo sapiens, UniProt Q13546).
T1 construct: hRIPK1 (aa 1-375) fusion protein
T1 sequence (Q13546 1-375): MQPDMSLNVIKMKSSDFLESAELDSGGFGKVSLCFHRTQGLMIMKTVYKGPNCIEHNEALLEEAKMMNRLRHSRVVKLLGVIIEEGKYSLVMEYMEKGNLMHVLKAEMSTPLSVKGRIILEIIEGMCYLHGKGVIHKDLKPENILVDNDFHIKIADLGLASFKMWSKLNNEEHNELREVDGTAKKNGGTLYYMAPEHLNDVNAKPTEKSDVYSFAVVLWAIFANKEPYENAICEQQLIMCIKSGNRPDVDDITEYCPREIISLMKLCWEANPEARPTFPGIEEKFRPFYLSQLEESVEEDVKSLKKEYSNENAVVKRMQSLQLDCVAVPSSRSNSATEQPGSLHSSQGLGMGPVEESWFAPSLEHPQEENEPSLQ
As to the kind of experiment: Receptor-Interacting Protein Kinase 1 inhibition, ADP Glo assay (conversion of ATP to ADP due to autophosphorylation). In kind it is biochemical. The note with it: ATP 50 μM, 30 min preincubation, 240 min incubation, room temperature, DMSO 1%. How it is done: The catalytic activity of RIPK1 was measured by monitoring the conversion of Adenosine triphosphate (ATP) to Adenosine diphosphate (ADP) due to autophosphorylation using an ADP-Glo kinase kit (Promega, catalog no. V9104).
In detail, 2 μl recombinantly produced hRIPK1 (aa 1-375) fusion protein (end concentration 3.6 μg/ml) and 2 μl compound (end concentration 33300-1.69 nM; DMSO end concentration 1%) were incubated for 30 minutes at room temperature and then 2 μl ATP (ADP Glo kit, end concentration 50 μM) were added. After another 240 minutes incubation at room temperature, 5 μl Promega ADP-Glo reagent I was added to quench the reaction and deplete unconsumed ATP. After an incubation period of 30 minutes, 10 μl Promega ADP-Glo detection reagent II was added resulting in conversion of ADP to ATP, which generates a light-reaction between luciferase and luciferin. Luminescence was quantified after 30 minutes with a Pherastar FS (BMG LABTECH, Ortenberg).
The adjustment was obtained by nonlinear regression using the Levenberg Marquardt algorithm.
On the technique in general: ADP-Glo turns the ADP formed in a reaction into a luminescent signal.

The test system of another test is U937 cells. As to the kind of experiment: Cellular assay in U937 cells to measure activity of RIPK1-inhibitors on cell death (necroptosis). In kind it is cell-based. The note with it: overnight (18 to 24 hrs), 37° C., MTS readout. The text has this:
Upon TNF-Receptor I ligation, Ser/Thr kinase RIPK1 is recruited to a transient receptor complex I. Upon modification of RIPK1 which promotes activation of RIPK1, complex lib can form, that involves recruitment of RIPK3 and MLKL (mixed lineage-kinase domain-like protein) which then translocates from the cytosol to the plasma membrane to execute cell death (Cai, Z. et al, Nat. Cell Biol. (2014)16:55-65).
Cell death was quantified in 96 well plates by determination of the amount of live cell using a CellTiter 96 Aqueous reagent (Promega), a calorimetric method to measure the number of live cells by reducing tetrazolium compound [3-(4,5-dimethylthiazol-2-yl)-5-(3-carboxymethoxyphenyl)-2-(4-sulfophenyl)-2H-tetrazolium, inner salt; MTS] into formazan. Absorbance of formazan was read at 490 nm. The inhibitory activity of the test compound was quantified in a concentration response curve (CRC) experiment.
Compounds were obtained as 10 mM stock solutions and were diluted 1 to 10 volumes with DMSO to yield a 1 mM solution. From this solution 2 μl were diluted with 998 μl growth medium. 100 μl of 2 μM compound solution was further diluted sequentially with a dilution factor of 2.5 by adding 150 μl growth medium. A total of 10 concentrations were tested ranging from 10 μM to 0.26 nM or from 1 μM to 0.07 nM.
U937 cells were cultured in RPM11640 Glutamax and 10% heat inactivated FBS. 50 μl cell suspension containing 1×10^6 cells/ml supplemented with 50 μM zVAD.fmk (Benzyloxycarbonyl-Val-Ala-Asp (Ome) fluoromethylketone) and 100 ng/ml recombinant human TNFα were dispensed in each well of a 96-well plate. 50 μl of compound dilutions (described in Cellular assay in U937 cells) were added and the cell suspension incubated overnight (18 to 24 hrs) at 37° C., 5% CO2 in a humidified atmosphere (95% rH). High (no compound) and low control (no TNFα, zVAD.fmk) were tested with 7 replicates; all compound concentrations were tested in duplicates on each experimental plate.
CellTiter 96 Aqueous reagent was mixed (100 μl PMS (phenazine methosulfate) solution/2 ml MTS (3-(4,5-[…])-5-(3-carboxymethoxyphenyl)-2-(4-sulfophenyl)-2H-tetrazolium, inner salt) solution) and 20 μl were added per well. After 4 hrs incubation at 37° C. (5% CO2 95% rH) optical density was measured at 490 nm on a microplate reader (Tecan Infinite M1000).
The % inhibition is expressed as percentage of the maximal inhibition value obtained in the absence of TNFα/zVAD.fmc.

Where [2] appears, read: Homo sapiens, U-937, TNFα/zVAD.fmk induced cell death (necroptosis).
[3] abbreviates: TNFα/zVAD.fmk induced cell death (necroptosis).

On to `NC(=O)c1ccnc(C2CCC(C(=O)N3OCC[C@H]3c3cc(F)cc(F)c3)C2)c1` (single isomer, unassigned) [Compound 114], for which the IC50 in test [1] is 132 nM; in the test with U937 cells (setting [2]), 816 nM.
Regarding `N#Cc1cc(F)cc([C@@H]2CCON2C(=O)C2CCC(COc3cc(C(N)=O)ncn3)C2)c1` (single isomer, unassigned) [Compound 115], the half-maximal inhibitory concentration (IC50) in test [1] came to 53 nM; in the test with U937 cells (setting [3]) it was 842 nM.
Regarding `N#Cc1cc(F)cc([C@@H]2CCON2C(=O)C2CCCC(COc3cc(C(N)=O)ncn3)CC2)c1` (single isomer, unassigned) [Compound 128], the IC50 in test [1] is 20 nM; in the test on U937 cells (setting [3]), 691 nM.
For `NC(=O)c1cc(OCC2CCC(C(=O)N3OCC[C@H]3c3cc(F)cc(F)c3)C2)ncn1` (single isomer, unassigned; stereoisomer 1) [Compound 118], the IC50 was 20 nM in test [1] and 137 nM with U937 cells (setting [3]).
Turning to `NC(=O)c1cc(OCC2CCCC(C(=O)N3OCC[C@H]3c3cc(F)cc(F)c3)CC2)ncn1` (single isomer, unassigned; stereoisomer 1) [Compound 122], the 50% inhibitory concentration (IC50) in test [1] was found to be 17 nM; in the test with U937 cells (setting [3]) it was 30 nM.
As for `N#Cc1cc(F)cc([C@@H]2CCON2C(=O)C2CCCC(COc3cc(C(N)=O)ncn3)CC2)c1` (single isomer, unassigned; stereoisomer 1) [Compound 126], the IC50 worked out at 25 nM in test [1] and 54 nM in the test on U937 cells (setting [3]).
Turning to `N#Cc1cc(F)cc([C@@H]2CCON2C(=O)C2CCC(COc3cc(C(N)=O)ncn3)C2)c1` (single isomer, unassigned; stereoisomer 2) [Compound 116], the IC50 in test [1] turned out to be 23 nM; with U937 cells (setting [3]), 377 nM.
For `NC(=O)c1cc(OCC2CCC(C(=O)N3OCC[C@H]3c3cc(F)cc(F)c3)C2)ncn1` (single isomer, unassigned; stereoisomer 2) [Compound 119], in that order: 29 nM and 388 nM.
For `NC(=O)c1cc(OCC2CCCC(C(=O)N3OCC[C@H]3c3cc(F)cc(F)c3)CC2)ncn1` (single isomer, unassigned; stereoisomer 2) [Compound 123], the IC50 in test [1] turned out to be 14 nM; with U937 cells (setting [3]), 24 nM.
Take `N#Cc1cc(F)cc([C@@H]2CCON2C(=O)C2CCCC(COc3cc(C(N)=O)ncn3)CC2)c1` (single isomer, unassigned; stereoisomer 2) [Compound 127]: the results for the IC50 (in test [1]; in the test with U937 cells (setting [3])) were 17 nM and 31 nM, respectively.
Turning to `N#Cc1cc(F)cc([C@@H]2CCON2C(=O)C2CCC(COc3cc(C(N)=O)ncn3)C2)c1` (single isomer, unassigned; stereoisomer 3) [Compound 117], the IC50 in test [1] is 50 nM; in the test on U937 cells (setting [3]), 675 nM.
For `NC(=O)c1cc(OCC2CCC(C(=O)N3OCC[C@H]3c3cc(F)cc(F)c3)C2)ncn1` (single isomer, unassigned; stereoisomer 3) [Compound 120], in that order: 32 nM and 336 nM.
In the same order, the values of `NC(=O)c1cc(OCC2CCCC(C(=O)N3OCC[C@H]3c3cc(F)cc(F)c3)CC2)ncn1` (single isomer, unassigned; stereoisomer 3) [Compound 124] are 21 nM and 81 nM.
For `NC(=O)c1cc(OCC2CCC(C(=O)N3OCC[C@H]3c3cc(F)cc(F)c3)C2)ncn1` (single isomer, unassigned; stereoisomer 4) [Compound 121], in that order: 30 nM and 755 nM.
In the case of `NC(=O)c1cc(OCC2CCCC(C(=O)N3OCC[C@H]3c3cc(F)cc(F)c3)CC2)ncn1` (single isomer, unassigned; stereoisomer 4) [Compound 125], the results for the IC50 (in test [1]; in the test with U937 cells (setting [3])) were 39 nM and 347 nM, respectively.
As to `NC(=O)c1ccnc(N[C@H]2C[C@@H](C(=O)N3OCC[C@H]3c3cc(F)cc(F)c3)C2)n1` [Compound 1, cis-2-((3-((S)-3-(3,5-difluorophenyl)isoxazolidine-2-carbonyl)cyclobutyl)amino)pyrimidine-4-carboxamide], the results for the IC50 (in test [1]; with U937 cells (setting [2])) were 19 nM and 34 nM, respectively.
For `N#Cc1ccnc(N[C@H]2C[C@@H](C(=O)N3OCC[C@H]3c3cc(F)cc(F)c3)C2)n1` [Compound 2, cis-2-((3-((S)-3-(3,5-difluorophenyl)isoxazolidine-2-carbonyl)cyclobutyl)amino)pyrimidine-4-carbonitrile], the values for the IC50 (in test [1]; with U937 cells (setting [2])) were 22 nM and 101 nM, respectively.
With `COC(=O)c1ccnc(N[C@H]2C[C@@H](C(=O)N3OCC[C@H]3c3cc(F)cc(F)c3)C2)n1` [Compound 3, methyl cis-2-((3-((S)-3-(3,5-difluorophenyl)isoxazolidine-2-carbonyl)cyclobutyl)amino)pyrimidine-4-carboxylate], the IC50 was 47 nM in test [1] and 536 nM with U937 cells (setting [2]).
For `NC(=O)c1ccnc(N[C@H]2C[C@H](C(=O)N3OCC[C@H]3c3cc(F)cc(F)c3)C2)n1` [Compound 4, trans-2-((3-((S)-3-(3,5-difluorophenyl)isoxazolidine-2-carbonyl)cyclobutyl)amino)pyrimidine-4-carboxamide], the values for the IC50 (in test [1]; in the test with U937 cells (setting [2])) were 90 nM and 360 nM, respectively.
For `C[C@]1(C(=O)N2OCC[C@H]2c2cc(F)cc(F)c2)C[C@@H](Nc2nccc(C#N)n2)C1` [Compound 5, cis-2-((3-((S)-3-(3,5-difluorophenyl)isoxazolidine-2-carbonyl)-3-methylcyclobutyl)amino)pyrimidine-4-carbonitrile], in that order: 38 nM and 75 nM.
Turning to `C[C@]1(C(=O)N2OCC[C@H]2c2cc(F)cc(F)c2)C[C@@H](Nc2nccc(C(N)=O)n2)C1` [Compound 6, cis-2-((3-((S)-3-(3,5-difluorophenyl)isoxazolidine-2-carbonyl)-3-methylcyclobutyl)amino)pyrimidine-4-carboxamide], the IC50 in test [1] turned out to be 21 nM; with U937 cells (setting [2]), 6 nM.
As to `C[C@]1(C(=O)N2OCC[C@H]2c2cncc(C#N)c2)C[C@@H](Nc2nccc(C(N)=O)n2)C1` [Compound 7, cis-2-((3-((S)-3-(5-cyanopyridin-3-yl)isoxazolidine-2-carbonyl)-3-methylcyclobutyl)amino)pyrimidine-4-carboxamide], the results for the IC50 (in test [1]; in the test on U937 cells (setting [2])) were 23 nM and 336 nM, respectively.
For the compound `N#Cc1cc(F)cc([C@@H]2CCON2C(=O)[C@H]2CC[C@@H](Nc3cc(C#N)ncn3)CC2)c1` [Compound 28, cis-6-((4-((S)-3-(3-cyano-5-fluorophenyl)isoxazolidine-2-carbonyl)cyclohexyl)amino)pyrimidine-4-carbonitrile], the IC50 in test [1] was 162 nM.

The term IC50 denotes the point on the concentration scale where inhibition reaches its midpoint.
